# Data as given in patent publication US20240376084A1, “INHIBITORS OF ALPHA-HEMOLYSIN OF STAPHYLOCOCCUS AUREUS” (Helmholtz-Zentrum Fur Infektionsforschung GmbH, priority 2021, published 2024).
# Target: hemolysin alpha from Staphylococcus aureus (Staphylococcus aureus, UniProt P09616)
# Test: cell-based
# hemolysin alpha from Staphylococcus aureus, sequence (P09616 27-319 limits assumed): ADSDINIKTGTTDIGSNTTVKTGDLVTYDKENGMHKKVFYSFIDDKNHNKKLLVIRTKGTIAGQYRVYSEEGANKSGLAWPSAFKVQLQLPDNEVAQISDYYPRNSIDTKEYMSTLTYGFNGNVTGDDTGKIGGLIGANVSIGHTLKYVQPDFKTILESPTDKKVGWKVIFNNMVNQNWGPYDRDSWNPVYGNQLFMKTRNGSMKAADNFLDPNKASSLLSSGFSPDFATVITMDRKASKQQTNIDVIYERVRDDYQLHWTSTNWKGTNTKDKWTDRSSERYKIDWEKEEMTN
SMILES,IC50 [nM],EC50 [nM]
"Cc1ccc(-c2ccc(NS(=O)(=O)c3cc4[nH]c(=O)c(=O)[nH]c4cc3C)cc2)c(C)c1 [Compound 118, N-(2′,4′-dimethyl-[1,1′-biphenyl]-4-yl)-7-methyl-2,3-dioxo-1,2,3,4-tetrahydroquinoxaline-6-sulfonamide]",100 to 1000,–
"Cc1cc2[nH]c(=O)c(=O)[nH]c2cc1S(=O)(=O)Nc1cnc(-c2ccc(F)c(Cl)c2)c(Cl)c1 [Compound 214, N-(5-chloro-6-(3-chloro-4-fluorophenyl)pyridin-3-yl)-7-methyl-2,3-dioxo-1,2,3,4-tetrahydroquinoxaline-6-sulfonamide]",–,100 to 1000
"Cc1cc2[nH]c(=O)c(=O)[nH]c2cc1S(=O)(=O)Nc1ccc(F)c(Cl)c1 [Compound 183, N-(3-chloro-4-fluorophenyl)-7-methyl-2,3-dioxo-1,2,3,4-tetrahydroquinoxaline-6-sulfonamide]",1000 to 3500,–
"O=c1[nH]c2cc(F)c(S(=O)(=O)Nc3ccc(C(F)(F)F)cc3)cc2[nH]c1=O [Compound 160, 7-fluoro-2,3-dioxo-N-(4-(trifluoromethyl)phenyl)-1,2,3,4-tetrahydroquinoxaline-6-sulfonamide]",1000 to 3500,–
"Cc1cc(NS(=O)(=O)c2cc3[nH]c(=O)c(=O)[nH]c3cc2Cl)ccc1-c1ccncc1 [Compound 155, 7-chloro-N-(3-methyl-4-(pyridin-4-yl)phenyl)-2,3-dioxo-1,2,3,4-tetrahydroquinoxaline-6-sulfonamide]",100 to 1000,–
"Cc1cc(NS(=O)(=O)c2cc3[nH]c(=O)c(=O)[nH]c3cc2F)ccc1Br [Compound 163, N-(4-bromo-3-methylphenyl)-7-fluoro-2,3-dioxo-1,2,3,4-tetrahydroquinoxaline-6-sulfonamide]",100 to 1000,–
"Cc1cc(NS(=O)(=O)c2cc3[nH]c(=O)c(=O)[nH]c3cc2Cl)cc(C)c1-c1ccsc1 [Compound 80, 7-chloro-N-(3,5-dimethyl-4-(thiophen-3-yl)phenyl)-2,3-dioxo-1,2,3,4-tetrahydroquinoxaline-6-sulfonamide]",100 to 1000,–
"Cc1cc(NS(=O)(=O)c2cc3[nH]c(=O)c(=O)[nH]c3cc2Cl)cc(C)c1-c1ccncc1 [Compound 157, 7-chloro-N-(3,5-dimethyl-4-(pyridin-4-yl)phenyl)-2,3-dioxo-1,2,3,4-tetrahydroquinoxaline-6-sulfonamide]",1000 to 3500,–
"Cc1cc2[nH]c(=O)c(=O)[nH]c2cc1S(=O)(=O)Nc1cc(Cl)c(Br)cn1 [Compound 226, N-(5-bromo-4-chloropyridin-2-yl)-7-methyl-2,3-dioxo-1,2,3,4-tetrahydroquinoxaline-6-sulfonamide]",–,1000 to 3500
"Cc1cc2[nH]c(=O)c(=O)[nH]c2cc1S(=O)(=O)Nc1ccc2cccnc2c1 [Compound 231, 7-methyl-2,3-dioxo-N-(quinolin-7-yl)-1,2,3,4-tetrahydroquinoxaline-6-sulfonamide]",–,100 to 1000
"Cc1cc2[nH]c(=O)c(=O)[nH]c2cc1S(=O)(=O)Nc1cc(C)c(-c2cn[nH]c2)c(C)c1 [Compound 187, N-(3,5-dimethyl-4-(1H-pyrazol-4-yl)phenyl)-7-methyl-2,3-dioxo-1,2,3,4-tetrahydroquinoxaline-6-sulfonamide]",1000 to 3500,–
"COc1cc2[nH]c(=O)c(=O)[nH]c2cc1S(=O)(=O)Nc1ccc(OC(F)(F)F)cc1 [Compound 193, 7-methoxy-2,3-dioxo-N-(4-(trifluoromethoxy)phenyl)-1,2,3,4-tetrahydroquinoxaline-6-sulfonamide]",–,100 to 1000
"COc1ccc(-c2ccc(NS(=O)(=O)c3cc4[nH]c(=O)c(=O)[nH]c4cc3C)cc2Cl)cc1C(N)=O [Compound 395, 5-[2-chloro-4-[(7-methyl-2,3-dioxo-1,4-dihydroquinoxalin-6-yl)sulfonylamino]phenyl]-2-methoxy-benzamide]",–,1000 to 3500
"Cc1ccc(-c2ccc(NS(=O)(=O)c3cc4[nH]c(=O)c(=O)[nH]c4cc3C)cc2)cc1 [Compound 115, 7-methyl-N-(4′-methyl-[1,1′-biphenyl]-4-yl)-2,3-dioxo-1,2,3,4-tetrahydroquinoxaline-6-sulfonamide]",100 to 1000,–
"Cc1cc2[nH]c(=O)c(=O)[nH]c2cc1S(=O)(=O)Nc1nc2ccccc2s1 [Compound 238, N-(benzo[d]thiazol-2-yl)-7-methyl-2,3-dioxo-1,2,3,4-tetrahydroquinoxaline-6-sulfonamide]",–,100 to 1000
"Cc1cc2[nH]c(=O)c(=O)[nH]c2cc1S(=O)(=O)Nc1ccc2c(c1)OCCO2 [Compound 242, N-(2,3-dihydrobenzo[b][1,4]dioxin-6-yl)-7-methyl-2,3-dioxo-1,2,3,4-tetrahydroquinoxaline-6-sulfonamide]",–,100 to 1000
"Cc1cc2[nH]c(=O)c(=O)[nH]c2cc1S(=O)(=O)Nc1ccc2c(c1)OC(F)(F)O2 [Compound 241, N-(2,2-difluorobenzo[d][1,3]dioxol-5-yl)-7-methyl-2,3-dioxo-1,2,3,4-tetrahydroquinoxaline-6-sulfonamide]",–,100 to 1000
"Cc1cc(NS(=O)(=O)c2cc3[nH]c(=O)c(=O)[nH]c3cc2Cl)cc(C)c1-c1ccoc1 [Compound 156, 7-chloro-N-(4-(furan-3-yl)-3,5-dimethylphenyl)-2,3-dioxo-1,2,3,4-tetrahydroquinoxaline-6-sulfonamide]",100 to 1000,–

SMILES,IC50 [nM],EC50 [nM]
"CC(C)c1cc2[nH]c(=O)c(=O)[nH]c2cc1S(=O)(=O)Nc1ccc(-c2ccoc2)c(Cl)c1 [Compound 161, N-(3-chloro-4-(furan-3-yl)phenyl)-7-isopropyl-2,3-dioxo-1,2,3,4-tetrahydroquinoxaline-6-sulfonamide]",100 to 1000,–
"Cc1cc2[nH]c(=O)c(=O)[nH]c2cc1S(=O)(=O)Nc1ccc(C#N)cc1 [Compound 129, N-(4-cyanophenyl)-7-methyl-2,3-dioxo-1,2,3,4-tetrahydroquinoxaline-6-sulfonamide]",1000 to 3500,–
"Cc1cc2[nH]c(=O)c(=O)[nH]c2cc1S(=O)(=O)Nc1ccc(-c2c(C)cccc2C)cc1 [Compound 116, N-(2′,6′-dimethyl-[1,1′-biphenyl]-4-yl)-7-methyl-2,3-dioxo-1,2,3,4-tetrahydroquinoxaline-6-sulfonamide]",100 to 1000,–
"O=c1[nH]c2cc(F)c(S(=O)(=O)Nc3ccc(Br)c(Cl)c3)cc2[nH]c1=O [Compound 148, N-(4-bromo-3-chlorophenyl)-7-fluoro-2,3-dioxo-1,2,3,4-tetrahydroquinoxaline-6-sulfonamide]",100 to 1000,–
"Cc1cc2[nH]c(=O)c(=O)[nH]c2cc1S(=O)(=O)Nc1ccc2c(ccn2C)c1 [Compound 228, 7-methyl-N-(1-methyl-1H-indol-5-yl)-2,3-dioxo-1,2,3,4-tetrahydroquinoxaline-6-sulfonamide]",–,1000 to 3500
"Cc1cc2[nH]c(=O)c(=O)[nH]c2cc1S(=O)(=O)Nc1ccc(N2CCCOCC2)c(Cl)c1 [Compound 208, N-(3-chloro-4-(1,4-oxazepan-4-yl)phenyl)-7-methyl-2,3-dioxo-1,2,3,4-tetrahydroquinoxaline-6-sulfonamide]",–,1000 to 3500
O=c1[nH]c2cc3c(cc2[nH]c1=O)S(=O)(=O)N(c1ccc(OC(F)(F)F)cc1)CCO3 [Compound 237],–,100 to 1000
"Cc1cc2[nH]c(=O)c(=O)[nH]c2cc1S(=O)(=O)Nc1ccc(N2CCOCC2)c(Cl)c1 [Compound 200, N-(3-chloro-4-morpholinophenyl)-7-methyl-2,3-dioxo-1,2,3,4-tetrahydroquinoxaline-6-sulfonamide]",–,1000 to 3500
"Cc1cc2[nH]c(=O)c(=O)[nH]c2cc1S(=O)(=O)Nc1nc(C)c(-c2ccccc2)s1 [Compound 240, 7-methyl-N-(4-methyl-5-phenylthiazol-2-yl)-2,3-dioxo-1,2,3,4-tetrahydroquinoxaline-6-sulfonamide]",–,1000 to 3500
"O=c1[nH]c2cc(Br)c(S(=O)(=O)Nc3ccc(C4CC4)cc3)cc2[nH]c1=O [Compound 96, 7-bromo-N-(4-cyclopropylphenyl)-2,3-dioxo-1,2,3,4-tetrahydroquinoxaline-6-sulfonamide]",100 to 1000,–
"O=c1[nH]c2cc([N+](=O)[O-])c(S(=O)(=O)Nc3ccc(OC(F)(F)F)cc3)cc2[nH]c1=O [Compound 191, 7-nitro-2,3-dioxo-N-(4-(trifluoromethoxy)phenyl)-1,2,3,4-tetrahydroquinoxaline-6-sulfonamide]",–,100 to 1000
"Cc1cc(NS(=O)(=O)c2cc3[nH]c(=O)c(=O)[nH]c3cc2F)cc(C)c1-c1ccncc1 [Compound 167, N-(3,5-dimethyl-4-(pyridin-4-yl)phenyl)-7-fluoro-2,3-dioxo-1,2,3,4-tetrahydroquinoxaline-6-sulfonamide]",1000 to 3500,–
"O=c1[nH]c2cc(F)c(S(=O)(=O)Nc3ccc4c(c3)CCCC4)cc2[nH]c1=O [Compound 164, 7-fluoro-2,3-dioxo-N-(5,6,7,8-tetrahydronaphthalen-2-yl)-1,2,3,4-tetrahydroquinoxaline-6-sulfonamide]",100 to 1000,–
"CCCc1ccc(NS(=O)(=O)c2cc3[nH]c(=O)c(=O)[nH]c3cc2C(C)C)cc1 [Compound 151, 7-isopropyl-2,3-dioxo-N-(4-propylphenyl)-1,2,3,4-tetrahydroquinoxaline-6-sulfonamide]",100 to 1000,–
"Cc1ccc(NS(=O)(=O)c2cc3[nH]c(=O)c(=O)[nH]c3cc2C)cc1Cl [Compound 181, N-(3-chloro-4-methylphenyl)-7-methyl-2,3-dioxo-1,2,3,4-tetrahydroquinoxaline-6-sulfonamide]",1000 to 3500,–
"O=c1[nH]c2cc(OC(F)(F)F)c(S(=O)(=O)Nc3ccc(OC(F)(F)F)cc3)cc2[nH]c1=O [Compound 192, 2,3-dioxo-7-(trifluoromethoxy)-N-(4-(trifluoromethoxy)phenyl)-1,2,3,4-tetrahydroquinoxaline-6-sulfonamide]",–,100 to 1000
"Cc1cc2[nH]c(=O)c(=O)[nH]c2cc1S(=O)(=O)Nc1ccc(N(C)C)cc1 [Compound 133, N-(4-(dimethylamino)phenyl)-7-methyl-2,3-dioxo-1,2,3,4-tetrahydroquinoxaline-6-sulfonamide]",100 to 1000,–
"O=c1[nH]c2cc(C(F)(F)F)c(S(=O)(=O)Nc3ccc(OC(F)(F)F)cc3)cc2[nH]c1=O [Compound 190, 2,3-Dioxo-N-(4-(trifluoromethoxy)phenyl)-7-trifluoromethyl-1,2,3,4-tetrahydroquinoxaline-6-sulfonamide]",–,100 to 1000
